Results reported in US10426765B2, “Pharmaceutical composition containing nicotinic acid and/or nicotinamide and/or tryptophan for positively influencing the intestinal microbiota” (CONARIS RESEARCH INSTITUTE AG, priority 2012, dated 2019).

Assays:
[1] = tested on: DSS colitis in ACE2-deficient mice; experiment: DSS colitis in ACE2-deficient mice given nicotinamide or tryptophan dipeptides (Example 1); type: in vivo; conditions: prophylactic and permanent administration
Excerpt: Top row: histopathology of the colon (haematoxylin eosin staining on day 10 after DSS administration; bar: 100 μm (a)), weight loss in percent (b) and diarrhea score (c) of DSS-challenged ACE2-normal (ACE2+/y) and ACE2-deficient (ACE2-/y) mice which were given vehicle or nicotinamide (NAM) in the drinking water. The NAM administration began 3 days before the DSS administration. Bottom row: histopathology of the colon (haematoxylin eosin staining on day 7 after DSS challenge; bar: 100 μm (d)), weight loss in percent (e) and damage of the crypts of the colon (f) in DSS-challenged ACE2-normal (ACE2+/y) and ACE2-deficient (ACE2-/y) mice which received normal diet (control) or a tryptophan-dipeptide diet (Trp+). New and findings unpublished at the time the priority application was filed, since published as Hashimoto et al. (Nature 2012, 487:477), support the teachings of the present invention and are briefly described here for the purpose of illustration: It is known that the expression of the transporter for neutral amino acids B^0 AT1 (which transports tryptophan) on the surface of intestinal epithelial cells is bound to the presence of the angiotensin converting enzyme 2 (ACE2) (Kowalczuk et al. 2008, FASEB J. 22:2880; Camargo et al. 2009, Gastroenterology 136:872). […]

Crohn's disease = Crohn's disease activity index (CDAI) in patients treated with nicotinamide (Example 2); type: in vivo, human; conditions: three Crohn's disease patients
Excerpt: A value of CDAI<150 is equivalent to remission.

[2] = cited from earlier work

## NC(=O)c1cccnc1 [nicotinamide]
[1]
  intensification of DSS-induced intestinal inflammation in Ace2-/y mice: reduce this effect
Crohn's disease; conventionally formulated nicotinamide 2×600 mg daily for 4 weeks
  response of Crohn's disease activity index (CDAI): clear response
Crohn's disease; nicotinamide 2×600 mg daily for 4 weeks
  remission (CDAI<150) within the therapy period: two of them achieved the remission
[2]
  water solubility: high water solubility
